Data from paper PMC8414802, “Hair Cell Generation in Cochlear Culture Models Mediated by Novel γ-Secretase Inhibitors” (Frontiers in Cell and Developmental Biology, 2021).

System: hair cells in sisomicin-treated rat OC explants
Experiment: OC explants after sisomicin ototoxic damage
Format: cell-based
Conditions: sisomicin 200 μM 2 h
Method: To induce ototoxic damage, medium was removed from the OC cultures on the day after dissection and either 200 μM sisomicin (Sigma) in full otic medium, or 10^8 cfu/ml Streptococcus pneumoniae (described below) in ampicillin-free and FBS-free otic medium were added under the transwell membrane (lower compartment) of the cultivation system. After 2 h of exposure to the ototoxic insult, OCs were carefully washed 3 times and culture was continued for 4 days in fresh full otic medium.
Following culture, explants were washed (PBS) and fixed for 10 min at room temperature (RT) with 4% paraformaldehyde (PFA). […]
Dividing cells were labeled with, 5-ethyl-2′-deoxyuridine (EdU) and detected with Click-it Plus kit (Life Technologies). […]
Image processing was performed with the open-source image processing software FIJI, version 2.0 ([Schindelin et al., 2012]). Hair cells were quantified by counting Pou4f3 or Myo7a positive cells of the organ of Corti at three random microscopic fields for each cochlear region (base, middle, and apex) covering in total at least 1,200 μm. The number of hair cells (IHCs and OHCs) is expressed as unit per 100 μm.
FIGURE 3 GSI treatment after ototoxic damage. […] (B) Quantification of OHCs in sisomicin-treated explants (2 h; 200 μM), 4 days after ototoxic insult, and cultured in presence or absence of CPD3. […] (F) OHC quantification after bacteria-induced damage. […]

COc1ccc2c(c1)N1CCC(C)(C)C1=CC(=O)[C@H]2NC(=O)[C@H](C)NC(=O)CCC(F)(F)F [CPD3]
Increase of OHC numbers after sisomicin (4 days culture, apex): not statistically significant | Pou4f3/Sox2 double-positive cells after sisomicin (4 days, p = 0.057): observed only in the apical domain
